Experimental data as given in ChEMBL document CHEMBL1153689, “Conversion of the phytoestrogen coumestrol into a selective estrogen receptor modulator (SERM) by attachment of an amine-containing sidechain” (Bioorg Med Chem Lett, 1996).

Tested on: MCF7
Experiment: Inhibition of MCF-7 cell proliferation
Type: functional, cell-based
Settings: Homo sapiens

Oc1ccc2c(c1)OC(c1ccc(OCCN3CCCCC3)cc1)c1c-2oc2cc(O)ccc12 (stereo unspecified)
EC50: 40 nM
